Results on 16 compounds are retold here after ChEMBL document CHEMBL3045547, “Synthesis, characterization and antimicrobial screening of hybrid molecules containing benzimidazole-pyrazole and pyridine nucleus” (2012).

Converted amounts (≈) assume the structure as drawn.

Common to all, as to format: functional
One test has as its system Candida albicans. The test can be described thus: Antimicrobial activity against Candida albicans MTCC 227 after 72 hr by serial broth dilution method. Particulars: MTCC 227, 72 h.
For the next test, the system named is Pseudomonas aeruginosa. The test can be described thus: Antimicrobial activity against Pseudomonas aeruginosa MTCC 1688 after 24 to 48 hr by serial broth dilution method.
For the next test, the system named is Staphylococcus aureus. Briefly: Antimicrobial activity against Staphylococcus aureus MTCC 96 after 24 to 48 hr by serial broth dilution method.
For another test, the system named is Aspergillus niger. Briefly: Antimicrobial activity against Aspergillus niger MTCC 282 serial after 72 hr by broth dilution method. The note with it: MTCC 282, 72 h.
The next test concerns Aspergillus clavatus. The test can be described thus: Antimicrobial activity against Aspergillus clavatus MTCC 1323 after 72 hr by serial broth dilution method. Particulars: MTCC 1323, 72 h.
The next test concerns Escherichia coli. The test can be described thus: Antimicrobial activity against Escherichia coli MTCC 443 after 24 to 48 hr by serial broth dilution method.
Another test deals with Streptococcus pyogenes. Briefly: Antimicrobial activity against Streptococcus pyogenes MTCC 442 after 24 to 48 hr by serial broth dilution method.

`O=C(c1ccncc1)N1N=C(c2nc3ccccc3[nH]2)CC1c1ccccc1O` (stereo not given): the MIC against Candida albicans came to 100 µg/mL (≈ 261 µM); in the test on Pseudomonas aeruginosa it was 100 µg/mL (≈ 261 µM); against Staphylococcus aureus, 125 µg/mL (≈ 326 µM); against Aspergillus niger, 1000 µg/mL (≈ 2610 µM); against Aspergillus clavatus it was 100 µg/mL (≈ 261 µM); with Escherichia coli, 500 µg/mL (≈ 1300 µM). The MIC in the test with Streptococcus pyogenes is 100 µg/mL (≈ 261 µM).
For `O=C(c1ccncc1)N1N=C(c2nc3ccccc3[nH]2)CC1c1cccc([N+](=O)[O-])c1` (stereo not given), the MIC against Candida albicans is 500 µg/mL (≈ 1210 µM); with Pseudomonas aeruginosa, 100 µg/mL (≈ 242 µM); against Staphylococcus aureus, 500 µg/mL (≈ 1210 µM); against Aspergillus niger, 200 µg/mL (≈ 485 µM); in the test on Aspergillus clavatus it was 100 µg/mL (≈ 242 µM); against Escherichia coli, 100 µg/mL (≈ 242 µM). Also, in the test with Streptococcus pyogenes, the lowest concentration to inhibit growth (MIC) was 500 µg/mL (≈ 1210 µM).
Regarding `O=C(c1ccncc1)N1N=C(c2nc3ccccc3[nH]2)CC1c1ccc(F)cc1` (stereo not given), the MIC was determined as 500 µg/mL (≈ 1300 µM) in the test with Candida albicans; 100 µg/mL (≈ 259 µM) against Pseudomonas aeruginosa; 500 µg/mL (≈ 1300 µM) against Staphylococcus aureus; 200 µg/mL (≈ 519 µM) with Aspergillus niger; 500 µg/mL (≈ 1300 µM) against Aspergillus clavatus; 500 µg/mL (≈ 1300 µM) in the test with Escherichia coli. In addition, the MIC against Streptococcus pyogenes stood at 100 µg/mL (≈ 259 µM).
Regarding `COc1cc(C2CC(c3nc4ccccc4[nH]3)=NN2C(=O)c2ccncc2)ccc1O` (stereo not given), the MIC worked out at 500 µg/mL (≈ 1210 µM) with Candida albicans; 500 µg/mL (≈ 1210 µM) in the test on Pseudomonas aeruginosa; 100 µg/mL (≈ 242 µM) against Staphylococcus aureus; 100 µg/mL (≈ 242 µM) against Aspergillus niger; 200 µg/mL (≈ 484 µM) in the test with Aspergillus clavatus; 250 µg/mL (≈ 605 µM) in the test on Escherichia coli. The same compound returned an MIC in the test on Streptococcus pyogenes of 100 µg/mL (≈ 242 µM).
With `O=C(c1ccncc1)N1N=C(c2nc3ccccc3[nH]2)CC1c1ccccc1` (stereo not given), the MIC in the test on Candida albicans is 250 µg/mL (≈ 680 µM); against Pseudomonas aeruginosa, 500 µg/mL (≈ 1360 µM); against Staphylococcus aureus, 250 µg/mL (≈ 680 µM); against Aspergillus niger, 200 µg/mL (≈ 544 µM); against Aspergillus clavatus it was 500 µg/mL (≈ 1360 µM); against Escherichia coli, 250 µg/mL (≈ 680 µM). For the same compound, in the test with Streptococcus pyogenes, the lowest concentration to inhibit growth (MIC) was 100 µg/mL (≈ 272 µM).
Consider `CC1(C)S[C@@H]2[C@H](NC(=O)[C@H](N)c3ccccc3)C(=O)N2[C@H]1C(=O)O` [AMPICILLIN], for which the MIC against Pseudomonas aeruginosa turned out to be 100 µg/mL (≈ 286 µM); against Staphylococcus aureus it was 250 µg/mL (≈ 715 µM); against Escherichia coli it was 100 µg/mL (≈ 286 µM); against Streptococcus pyogenes, 100 µg/mL (≈ 286 µM).
Take `COC1=CC(=O)C[C@@H](C)[C@]12Oc1c(Cl)c(OC)cc(OC)c1C2=O` [GRISEOFULVIN]: the MIC against Candida albicans came out at 500 µg/mL (≈ 1420 µM); against Aspergillus niger, 100 µg/mL (≈ 283 µM); in the test on Aspergillus clavatus it was 100 µg/mL (≈ 283 µM).
Regarding `O=C(c1ccncc1)N1N=C(c2nc3ccccc3[nH]2)CC1c1ccccc1Cl` (stereo not given), the MIC in the test with Candida albicans stood at 500 µg/mL (≈ 1240 µM); with Pseudomonas aeruginosa it was 500 µg/mL (≈ 1240 µM); with Staphylococcus aureus, 250 µg/mL (≈ 622 µM); with Aspergillus niger, 1000 µg/mL (≈ 2490 µM); in the test with Aspergillus clavatus, 1000 µg/mL (≈ 2490 µM); in the test on Escherichia coli, 100 µg/mL (≈ 249 µM). Inhibition of growth against Streptococcus pyogenes (MIC) required 500 µg/mL (≈ 1240 µM).
For the compound `O=C(c1ccncc1)N1N=C(c2nc3ccccc3[nH]2)CC1c1ccc(O)cc1` (stereo not given), the MIC against Candida albicans was determined as 100 µg/mL (≈ 261 µM); against Pseudomonas aeruginosa, 250 µg/mL (≈ 652 µM); against Staphylococcus aureus, 250 µg/mL (≈ 652 µM); in the test with Aspergillus niger, 1000 µg/mL (≈ 2610 µM); in the test with Aspergillus clavatus, 1000 µg/mL (≈ 2610 µM); with Escherichia coli it was 25 µg/mL (≈ 65.2 µM). In the test with Streptococcus pyogenes, this compound returned an MIC of 250 µg/mL (≈ 652 µM).
With `O=C(c1ccncc1)N1N=C(c2nc3ccccc3[nH]2)CC1c1cccc(O)c1` (stereo not given), the MIC in the test with Candida albicans is 500 µg/mL (≈ 1300 µM); with Pseudomonas aeruginosa it was 25 µg/mL (≈ 65.2 µM); against Staphylococcus aureus it was 100 µg/mL (≈ 261 µM); against Aspergillus niger, 100 µg/mL (≈ 261 µM); in the test on Aspergillus clavatus, 500 µg/mL (≈ 1300 µM); against Escherichia coli it was 100 µg/mL (≈ 261 µM). In addition, the MIC with Streptococcus pyogenes is 50 µg/mL (≈ 130 µM).
As to `O=C(c1ccncc1)N1N=C(c2nc3ccccc3[nH]2)CC1c1ccc(Br)cc1` (stereo not given), the MIC against Candida albicans came to 1000 µg/mL (≈ 2240 µM); against Pseudomonas aeruginosa, 250 µg/mL (≈ 560 µM); with Staphylococcus aureus, 250 µg/mL (≈ 560 µM); against Aspergillus niger, 1000 µg/mL (≈ 2240 µM); with Aspergillus clavatus, 1000 µg/mL (≈ 2240 µM); in the test on Escherichia coli, 250 µg/mL (≈ 560 µM). Besides, the MIC in the test with Streptococcus pyogenes is 250 µg/mL (≈ 560 µM).
With `COc1ccc(C2CC(c3nc4ccccc4[nH]3)=NN2C(=O)c2ccncc2)cc1` (stereo not given), the MIC worked out at 500 µg/mL (≈ 1260 µM) against Candida albicans; 50 µg/mL (≈ 126 µM) against Pseudomonas aeruginosa; 125 µg/mL (≈ 315 µM) against Staphylococcus aureus; 200 µg/mL (≈ 503 µM) in the test with Aspergillus niger; 500 µg/mL (≈ 1260 µM) in the test on Aspergillus clavatus; 100 µg/mL (≈ 252 µM) in the test on Escherichia coli. Further, the MIC in the test on Streptococcus pyogenes was found to be 200 µg/mL (≈ 503 µM).
`O=C(c1ccncc1)N1N=C(c2nc3ccccc3[nH]2)CC1c1ccc(Cl)cc1` (stereo not given): the MIC is 1000 µg/mL (≈ 2490 µM) against Candida albicans; 500 µg/mL (≈ 1240 µM) in the test with Pseudomonas aeruginosa; 250 µg/mL (≈ 622 µM) against Staphylococcus aureus; 1000 µg/mL (≈ 2490 µM) with Aspergillus niger; 1000 µg/mL (≈ 2490 µM) against Aspergillus clavatus; 500 µg/mL (≈ 1240 µM) against Escherichia coli. Besides, it took 250 µg/mL (≈ 622 µM) to inhibit growth against Streptococcus pyogenes (MIC).
Regarding `O=C(c1ccncc1)N1N=C(c2nc3ccccc3[nH]2)CC1c1ccc([N+](=O)[O-])cc1` (stereo not given), the MIC turned out to be 500 µg/mL (≈ 1210 µM) with Candida albicans; 500 µg/mL (≈ 1210 µM) in the test with Pseudomonas aeruginosa; 500 µg/mL (≈ 1210 µM) against Staphylococcus aureus; 200 µg/mL (≈ 485 µM) against Aspergillus niger; 100 µg/mL (≈ 242 µM) against Aspergillus clavatus; 50 µg/mL (≈ 121 µM) against Escherichia coli. This compound came in with an MIC with Streptococcus pyogenes of 500 µg/mL (≈ 1210 µM).
`CN(C)c1ccc(C2CC(c3nc4ccccc4[nH]3)=NN2C(=O)c2ccncc2)cc1` (stereo not given): the MIC in the test on Candida albicans was 1000 µg/mL (≈ 2440 µM); with Pseudomonas aeruginosa, 100 µg/mL (≈ 244 µM); in the test with Staphylococcus aureus it was 250 µg/mL (≈ 609 µM); in the test with Aspergillus niger, 25 µg/mL (≈ 60.9 µM); against Aspergillus clavatus, 100 µg/mL (≈ 244 µM); in the test on Escherichia coli, 250 µg/mL (≈ 609 µM). The MIC with Streptococcus pyogenes came to 250 µg/mL (≈ 609 µM).
Take `Cc1ccc(C2CC(c3nc4ccccc4[nH]3)=NN2C(=O)c2ccncc2)cc1` (stereo not given): the MIC against Candida albicans was determined as 1000 µg/mL (≈ 2620 µM); in the test on Pseudomonas aeruginosa it was 50 µg/mL (≈ 131 µM); in the test with Staphylococcus aureus, 100 µg/mL (≈ 262 µM); against Aspergillus niger it was 1000 µg/mL (≈ 2620 µM); against Aspergillus clavatus, 1000 µg/mL (≈ 2620 µM); in the test with Escherichia coli it was 25 µg/mL (≈ 65.5 µM). This compound also returned an MIC in the test on Streptococcus pyogenes of 250 µg/mL (≈ 655 µM).
